Experimental data as given in patent publication US6841519B1, “Isoxazoline derivatives and herbicides containing the same as the active ingredient” (Kumiai Chemical Industry Co., Ltd., priority 1999, dated 2005).

Key:
Assay type in all cases: in vivo
[1] = tested on: Echinochloa oryzicola Vasing. (Eo); assay: Test for herbicidal effect by paddy field soil treatment (Test Example 1); details: application amount (active ingredient) 100 g/10 a, examined at the 21st day from the treatment, index per Table 40
Procedure, shortened: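 Scored on a standard scale at day 21 in the greenhouse: herbicidal effect of wettable powder applied to flooded water (3 cm depth) at 100 g a.i./10 ares, one day after sowing Eo into puddled paddy soil.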

[2] = tested on: Echinochloa crus-galli (L.) Beauv. var. crusgall (Ec); assay: Test for herbicidal effect by upland field soil treatment (Test Example 2), Ec
Procedure, shortened: (§1)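 Pre-emergence soil treatment: wettable powder diluted in water and sprayed on soil just sown with Ec and Se seeds, delivering 100 g active ingredient per 10 ares in 100 liters per 10 ares. Herbicidal effect was rated against a fixed scale 21 days later, after greenhouse growth.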

rice (Or) = assay: Test for crop selectivity by paddy field soil treatment (Test Example 4), phytotoxicity to rice; details: transplanted two-leaf stage rice, 100 g/10 a active ingredient, 21st day
Description: (§2) [table] <Test Example 4> Test For Crop Selectivity By Paddy Field Soil Treatment A paddy field soil was filled in a plastic pot of 100 cm^2 and subjected to puddling. Seeds of Echinochloa oryzicola Vasing. (Eo) were sowed; two-leaf stage seedlings of rice (Or) were transplanted in a depth of 2 cm; and water was filled in a depth of 3 cm. Next day, wettable powders produced in accordance with the Formulation 1 were diluted with water and dropped on the water surface. The application amount of each wettable powder was 100 g per 10 ares in terms of the active ingredient. Then, breeding was made in a greenhouse. At the 21st day from the treatment, the phytotoxicity and herbicidal effect of each wettable powder were examined in accordance with the standard shown in Table 40.

[3] = tested on: Echinochloa oryzicola Vasing. (Eo); assay: Test for crop selectivity by paddy field soil treatment (Test Example 4), herbicidal effect on Eo; details: 100 g/10 a active ingredient, 21st day
Description: as §2

[4] = tested on: Setaria viridis (L.) Beauv. (Se); assay: Test for herbicidal effect by upland field soil treatment (Test Example 2), Se
Procedure, shortened: as §1

[5] = 100 g/10 a active ingredient, examined at 21st day
[6] = application amount (active ingredient) 100 g/10 a, examined at the 21st day from the treatment, index per Table 40

Row | Structure (SMILES) | Herbicidal effect to Eo [1] | Herbicidal effect to Ec [2, 5] | Phytotoxicity to Or (rice (Or)) | Herbicidal effect to Eo [3] | Herbicidal effect to Se [4, 5] | Herbicidal effect to Ec [2, 6] | Herbicidal effect to Se [4, 6]
1 | CCCCOc1cccc(C)c1CS(=O)(=O)C1=NOC(C)(C)C1 [Compound 1-605] | 5 (A herbicidal effect or phytotoxicity of 90% or more) | 5 (A herbicidal effect or phytotoxicity of 90% or more) | 1 (A herbicidal effect or phytotoxicity of 10% to less than 30%) | 5 (A herbicidal effect or phytotoxicity of 90% or more) | 4 (A herbicidal effect or phytotoxicity of 70% to less than 90%) |  | 
2 | CC1(C)CC(S(=O)(=O)Cc2c(N)cccc2F)=NO1 [Compound 1-549] | 5 (A herbicidal effect or phytotoxicity of 90% or more) | 5 (A herbicidal effect or phytotoxicity of 90% or more) | 1 (A herbicidal effect or phytotoxicity of 10% to less than 30%) | 5 (A herbicidal effect or phytotoxicity of 90% or more) | 5 (A herbicidal effect or phytotoxicity of 90% or more) |  | 
3 | CCC1(C)CC(S(=O)(=O)Cc2cccc(F)c2)=NO1 (stereo not shown) [Compound 1-190] | 5 (A herbicidal effect or phytotoxicity of 90% or more) |  | 1 (A herbicidal effect or phytotoxicity of 10% to less than 30%) | 5 (A herbicidal effect or phytotoxicity of 90% or more) |  | 5 (A herbicidal effect or phytotoxicity of 90% or more) | 5 (A herbicidal effect or phytotoxicity of 90% or more)
4 | CCC1(C)CC(S(=O)(=O)Cc2cccc([N+](=O)[O-])c2)=NO1 (stereo not shown) [Compound 1-331] | 5 (A herbicidal effect or phytotoxicity of 90% or more) |  | 0 (A herbicidal effect or phytotoxicity of 0% to less than 10%) | 5 (A herbicidal effect or phytotoxicity of 90% or more) |  | 5 (A herbicidal effect or phytotoxicity of 90% or more) | 5 (A herbicidal effect or phytotoxicity of 90% or more)
5 | CCCOC(=O)c1ccccc1CS(=O)(=O)C1=NOC(C)(C)C1 [Compound 1-594] | 5 (A herbicidal effect or phytotoxicity of 90% or more) | 5 (A herbicidal effect or phytotoxicity of 90% or more) | 1 (A herbicidal effect or phytotoxicity of 10% to less than 30%) | 5 (A herbicidal effect or phytotoxicity of 90% or more) | 4 (A herbicidal effect or phytotoxicity of 70% to less than 90%) |  | 
6 | CCC(C)OC(=O)c1ccccc1CS(=O)(=O)C1=NOC(C)(C)C1 (stereo not shown) [Compound 1-597] | 5 (A herbicidal effect or phytotoxicity of 90% or more) | 5 (A herbicidal effect or phytotoxicity of 90% or more) | 1 (A herbicidal effect or phytotoxicity of 10% to less than 30%) | 5 (A herbicidal effect or phytotoxicity of 90% or more) | 4 (A herbicidal effect or phytotoxicity of 70% to less than 90%) |  | 
7 | CC1(C)CC(S(=O)(=O)Cc2ccccc2C(=O)OC2CCCC2)=NO1 [Compound 1-601] | 5 (A herbicidal effect or phytotoxicity of 90% or more) | 5 (A herbicidal effect or phytotoxicity of 90% or more) | 1 (A herbicidal effect or phytotoxicity of 10% to less than 30%) | 5 (A herbicidal effect or phytotoxicity of 90% or more) |  |  | 
8 | CC1(CO)CC(S(=O)(=O)Cc2c(F)cccc2F)=NO1 (stereo not shown) [Compound 1-394] | 5 (A herbicidal effect or phytotoxicity of 90% or more) |  | 1 (A herbicidal effect or phytotoxicity of 10% to less than 30%) | 5 (A herbicidal effect or phytotoxicity of 90% or more) |  | 4 (A herbicidal effect or phytotoxicity of 70% to less than 90%) | 
9 | O=S(=O)(Cc1c(F)cccc1F)C1=NOC2CCCCCC12 (stereo not shown) [Compound 1-518] |  | 5 (A herbicidal effect or phytotoxicity of 90% or more) | 1 (A herbicidal effect or phytotoxicity of 10% to less than 30%) | 5 (A herbicidal effect or phytotoxicity of 90% or more) | 4 (A herbicidal effect or phytotoxicity of 70% to less than 90%) |  | 
10 | CCOCCOc1ccccc1CS(=O)(=O)C1=NOC(C)(C)C1 [Compound 1-580] | 5 (A herbicidal effect or phytotoxicity of 90% or more) | 5 (A herbicidal effect or phytotoxicity of 90% or more) | 1 (A herbicidal effect or phytotoxicity of 10% to less than 30%) | 5 (A herbicidal effect or phytotoxicity of 90% or more) |  |  | 
11 | CCC1(C)CC(S(=O)(=O)Cc2cccc(C#N)c2)=NO1 (stereo not shown) [Compound 1-328] | 5 (A herbicidal effect or phytotoxicity of 90% or more) |  | 0 (A herbicidal effect or phytotoxicity of 0% to less than 10%) | 5 (A herbicidal effect or phytotoxicity of 90% or more) |  | 4 (A herbicidal effect or phytotoxicity of 70% to less than 90%) | 4 (A herbicidal effect or phytotoxicity of 70% to less than 90%)
12 | CC1(C)CC(S(=O)(=O)Cc2ccccc2OC2CCCCC2)=NO1 [Compound 1-610] | 5 (A herbicidal effect or phytotoxicity of 90% or more) | 5 (A herbicidal effect or phytotoxicity of 90% or more) | 1 (A herbicidal effect or phytotoxicity of 10% to less than 30%) | 5 (A herbicidal effect or phytotoxicity of 90% or more) | 5 (A herbicidal effect or phytotoxicity of 90% or more) |  | 
13 | CCCCOCc1ccccc1CS(=O)(=O)C1=NOC(C)(C)C1 [Compound 1-615] | 5 (A herbicidal effect or phytotoxicity of 90% or more) | 5 (A herbicidal effect or phytotoxicity of 90% or more) | 1 (A herbicidal effect or phytotoxicity of 10% to less than 30%) | 5 (A herbicidal effect or phytotoxicity of 90% or more) | 5 (A herbicidal effect or phytotoxicity of 90% or more) |  | 
14 | CCCCOC(=O)c1ccccc1CS(=O)(=O)C1=NOC(C)(C)C1 [Compound 1-596] | 5 (A herbicidal effect or phytotoxicity of 90% or more) | 5 (A herbicidal effect or phytotoxicity of 90% or more) | 1 (A herbicidal effect or phytotoxicity of 10% to less than 30%) | 5 (A herbicidal effect or phytotoxicity of 90% or more) | 5 (A herbicidal effect or phytotoxicity of 90% or more) |  | 
15 | CS(=O)(=O)C1=NOC2(CCC2)C1 [Compound 2-29] | 5 (A herbicidal effect or phytotoxicity of 90% or more) | 5 (A herbicidal effect or phytotoxicity of 90% or more) | 1 (A herbicidal effect or phytotoxicity of 10% to less than 30%) | 5 (A herbicidal effect or phytotoxicity of 90% or more) | 5 (A herbicidal effect or phytotoxicity of 90% or more) |  | 
16 | CCC1(C)CC(S(=O)(=O)Cc2ccccc2OC)=NO1 (stereo not shown) [Compound 1-228] | 5 (A herbicidal effect or phytotoxicity of 90% or more) |  | 1 (A herbicidal effect or phytotoxicity of 10% to less than 30%) | 5 (A herbicidal effect or phytotoxicity of 90% or more) |  | 5 (A herbicidal effect or phytotoxicity of 90% or more) | 5 (A herbicidal effect or phytotoxicity of 90% or more)
17 | CCC1(C)CC(SCc2c(F)cccc2F)=NO1 (stereo not shown) [Compound 1-198] | 5 (A herbicidal effect or phytotoxicity of 90% or more) |  | 1 (A herbicidal effect or phytotoxicity of 10% to less than 30%) | 5 (A herbicidal effect or phytotoxicity of 90% or more) |  | 4 (A herbicidal effect or phytotoxicity of 70% to less than 90%) | 5 (A herbicidal effect or phytotoxicity of 90% or more)
18 | O=S(=O)(Cc1c(F)cccc1F)C1=NOC2(CCCCC2)C1 [Compound 1-384] | 5 (A herbicidal effect or phytotoxicity of 90% or more) |  | 0 (A herbicidal effect or phytotoxicity of 0% to less than 10%) | 5 (A herbicidal effect or phytotoxicity of 90% or more) |  | 5 (A herbicidal effect or phytotoxicity of 90% or more) | 4 (A herbicidal effect or phytotoxicity of 70% to less than 90%)
19 | CCCOC(=O)c1cccc(Cl)c1CS(=O)(=O)C1=NOC(C)(C)C1 [Compound 1-620] | 5 (A herbicidal effect or phytotoxicity of 90% or more) | 5 (A herbicidal effect or phytotoxicity of 90% or more) | 1 (A herbicidal effect or phytotoxicity of 10% to less than 30%) | 5 (A herbicidal effect or phytotoxicity of 90% or more) | 5 (A herbicidal effect or phytotoxicity of 90% or more) |  | 
